Source: ChEMBL document CHEMBL3885861, “Open TG-GATES”

Species on record: Rattus norvegicus
Test: Open TG-GATES - Regimen: Single
Assay type: toxicity, organism-based, Sprague-Dawley
Design: regimen Single, gender Male, age 6 weeks
Conditions: in vivo, po, 200 mg/kg, route gavage, dose level Low; for APTT / Bas / Eos / Fbg / Hb / Ht / Lym / MCH / MCHC / MCV / Mono / Neu / PT / Plat / RBC / Ret / WBC: tissue Blood; for KIDNEY_L / KIDNEY_R / KIDNEY_TOTAL: tissue Kidney; for LIVER: tissue Liver; for A/G / ALP / ALT / AST / BUN / CRE / Ca / Cl / DBIL / GLC / IP / K / LDH / Na / PL / RALB / TBIL / TC / TG / TP / gamma-GTP: tissue Plasma

SMILES: NNC(=O)c1ccncc1 [ISONIAZID]
- TERMINAL_BW (3 h): 222.6 g
- APTT (3 h): 18.4 s
- Bas (3 h): 0%
- Eos (3 h): 0.8%
- Fbg (3 h): 239.8 mg/dL
- Hb (3 h): 13.6 g/dL
- Ht (3 h): 38%
- Lym (3 h): 74.4%
- MCH (3 h): 22.1 pg
- MCHC (3 h): 35.8%
- MCV (3 h): 61.6 fL
- Mono (3 h): 2%
- Neu (3 h): 22.4%
- PT (3 h): 12.2 s
- Plat (3 h): 126 x10_4/uL
- RBC (3 h): 617.4 x10_4/ul
- Ret (3 h): 7.7%
- WBC (3 h): 80.9 x10_2/uL
- KIDNEY_L (3 h): 1 g
- KIDNEY_R (3 h): 1 g
- KIDNEY_TOTAL (3 h): 2 g
- LIVER (3 h): 9.3 g
- A/G (3 h): 1.6
- ALP (3 h): 918.8 IU/L
- ALT (3 h): 35.2 IU/L
- AST (3 h): 70 IU/L
- BUN (3 h): 8.8 mg/dL
- CRE (3 h): 0.4 mg/dL
- Ca (3 h): 10.3 mg/dL
- Cl (3 h): 105.2 meq/L
- DBIL (3 h): 0.066 mg/dL
- GLC (3 h): 211 mg/dL
- IP (3 h): 10.1 mg/dL
- K (3 h): 3.6 meq/L
- LDH (3 h): 175.2 IU/L
- Na (3 h): 142.8 meq/L
- PL (3 h): 137 mg/dL
- RALB (3 h): 3.5 g/dL
- TBIL (3 h): 0.1 mg/dL
- TC (3 h): 76.4 mg/dL
- TG (3 h): 57.8 mg/dL
- TP (3 h): 5.7 g/dL
- gamma-GTP (3 h): 1 IU/L
- TERMINAL_BW (6 h): 219 g
- APTT (6 h): 18.5 s
- Bas (6 h): 0%
- Eos (6 h): 1%
- Fbg (6 h): 225 mg/dL
- Hb (6 h): 13.7 g/dL
- Ht (6 h): 38.3%
- Lym (6 h): 76.4%
- MCH (6 h): 21.7 pg
- MCHC (6 h): 35.8%
- MCV (6 h): 60.5 fL
- Mono (6 h): 2.6%
- Neu (6 h): 19%
- PT (6 h): 12 s
- Plat (6 h): 126.8 x10_4/uL
- RBC (6 h): 633.8 x10_4/ul
- Ret (6 h): 7.6%
- WBC (6 h): 87.2 x10_2/uL
- KIDNEY_L (6 h): 0.9 g
- KIDNEY_R (6 h): 0.9 g
- KIDNEY_TOTAL (6 h): 1.9 g
- LIVER (6 h): 9.6 g
- A/G (6 h): 1.5
- ALP (6 h): 735.6 IU/L
- ALT (6 h): 28.4 IU/L
- AST (6 h): 58 IU/L
- BUN (6 h): 8.2 mg/dL
- CRE (6 h): 0.4 mg/dL
- Ca (6 h): 10.2 mg/dL
- Cl (6 h): 104.8 meq/L
- DBIL (6 h): 0.064 mg/dL
- GLC (6 h): 211 mg/dL
- IP (6 h): 9.5 mg/dL
- K (6 h): 3.9 meq/L
- LDH (6 h): 197.4 IU/L
- Na (6 h): 142.4 meq/L
- PL (6 h): 140.8 mg/dL
- RALB (6 h): 3.3 g/dL
- TBIL (6 h): 0.1 mg/dL
- TC (6 h): 76 mg/dL
- TG (6 h): 71.2 mg/dL
- TP (6 h): 5.5 g/dL
- gamma-GTP (6 h): 1 IU/L
- TERMINAL_BW (9 h): 218.2 g
- APTT (9 h): 18.8 s
- Bas (9 h): 0.2%
- Eos (9 h): 0.6%
- Fbg (9 h): 228.2 mg/dL
- Hb (9 h): 13.7 g/dL
- Ht (9 h): 37.9%
- Lym (9 h): 75%
- MCH (9 h): 21.8 pg
- MCHC (9 h): 36%
- MCV (9 h): 60.6 fL
- Mono (9 h): 3%
- Neu (9 h): 20.8%
- PT (9 h): 12.3 s
- Plat (9 h): 119 x10_4/uL
- RBC (9 h): 626.2 x10_4/ul
- Ret (9 h): 7.8%
- WBC (9 h): 82.5 x10_2/uL
- KIDNEY_L (9 h): 0.9 g
- KIDNEY_R (9 h): 0.9 g
- KIDNEY_TOTAL (9 h): 1.8 g
- LIVER (9 h): 8.8 g
- A/G (9 h): 1.7
- ALP (9 h): 793.2 IU/L
- ALT (9 h): 23.4 IU/L
- AST (9 h): 44.6 IU/L
- BUN (9 h): 9.4 mg/dL
- CRE (9 h): 0.4 mg/dL
- Ca (9 h): 10.5 mg/dL
- Cl (9 h): 105 meq/L
- DBIL (9 h): 0.064 mg/dL
- GLC (9 h): 195.2 mg/dL
- IP (9 h): 9.3 mg/dL
- K (9 h): 3.9 meq/L
- LDH (9 h): 211.4 IU/L
- Na (9 h): 142.8 meq/L
- PL (9 h): 150.2 mg/dL
- RALB (9 h): 3.5 g/dL
- TBIL (9 h): 0.1 mg/dL
- TC (9 h): 80.2 mg/dL
- TG (9 h): 77.2 mg/dL
- TP (9 h): 5.5 g/dL
- gamma-GTP (9 h): 1 IU/L
- TERMINAL_BW (24 h): 229.4 g
- APTT (24 h): 18.3 s
- Bas (24 h): 0.8%
- Eos (24 h): 1%
- Fbg (24 h): 229.2 mg/dL
- Hb (24 h): 13.5 g/dL
- Ht (24 h): 37.6%
- Lym (24 h): 78.8%
- MCH (24 h): 21.7 pg
- MCHC (24 h): 36.1%
- MCV (24 h): 60 fL
- Mono (24 h): 2.4%
- Neu (24 h): 16%
- PT (24 h): 11.7 s
- Plat (24 h): 134.2 x10_4/uL
- RBC (24 h): 626.6 x10_4/ul
- Ret (24 h): 6.5%
- WBC (24 h): 89.2 x10_2/uL
- KIDNEY_L (24 h): 1 g
- KIDNEY_R (24 h): 1 g
- KIDNEY_TOTAL (24 h): 2 g
- LIVER (24 h): 10.3 g
- A/G (24 h): 1.6
- ALP (24 h): 1043.4 IU/L
- ALT (24 h): 30 IU/L
- AST (24 h): 58.2 IU/L
- BUN (24 h): 15.6 mg/dL
- CRE (24 h): 0.4 mg/dL
- Ca (24 h): 10.8 mg/dL
- Cl (24 h): 103 meq/L
- DBIL (24 h): 0.06 mg/dL
- GLC (24 h): 200.4 mg/dL
- IP (24 h): 8.5 mg/dL
- K (24 h): 4.3 meq/L
- LDH (24 h): 221.4 IU/L
- Na (24 h): 141.8 meq/L
- PL (24 h): 139 mg/dL
- RALB (24 h): 3.6 g/dL
- TBIL (24 h): 0.1 mg/dL
- TC (24 h): 71.4 mg/dL
- TG (24 h): 101.6 mg/dL
- TP (24 h): 5.7 g/dL
- gamma-GTP (24 h): 1.4 IU/L
